Results published in publication PMC12616683, “In Vivo Atlas of Neuroprotective Cyclic Dipeptides Derived from Food Gelatin Using Peptidomics and Feature-Based Molecular Networking” (Journal of Agricultural and Food Chemistry, 2025).
Peptide text beside a SMILES is read from it.

Assay: FBMN analysis of short peptides in small intestine contents and serum after oral DHG
Details: for Peptide signal (feature intensity) in the small intestine, 30 min / Peptide signal (feature intensity) in the small intestine, 60 min / Peptide signal (feature intensity) in the small intestine, 120 min / Peptide signal (feature intensity) in the small intestine, 240 min: small intestine contents, C57 mice, FBMN feature intensity, peptides smaller than 690 Da; for Peptide signal (feature intensity) in the small intestine, 30 min: 30 min after oral DHG; for Peptide signal (feature intensity) in the small intestine, 60 min: 60 min after oral DHG; for Peptide signal (feature intensity) in the small intestine, 120 min: 120 min after oral DHG; for Peptide signal (feature intensity) in the small intestine, 240 min: 240 min after oral DHG

Structure (SMILES) | Peptide signal (feature intensity) in the small intestine, 30 min | Peptide signal (feature intensity) in the small intestine, 60 min | Peptide signal (feature intensity) in the small intestine, 120 min | Peptide signal (feature intensity) in the small intestine, 240 min | time detected in serum (FBMN) (serum, time points 0.5-4 h after oral DHG)
CC(C)C[C@H](NC(=O)[C@@H](N)Cc1ccccc1)C(=O)N[C@@H](CCCCN)C(=O)O [Phe-Leu-Lys] (H-Phe-Leu-Lys-OH) | 0.00E+00 | 4.25E+05 | 0.00E+00 | 8.08E+05 | 
CC(C)CC(NC(=O)C(N)Cc1ccc(O)cc1)C(=O)O (stereo not drawn) [Tyr-Leu] (H-Tyr-Leu-OH; configuration not given here) | 2.28E+06 | 2.16E+06 | 0.00E+00 | 0.00E+00 | 
O=C1CCC(C(=O)NC(Cc2ccccc2)C(=O)O)N1 (stereo not shown) [PyroGlu-Phe] | 0.00E+00 | 1.13E+07 | 0.00E+00 | 5.69E+06 | only detected in the first hour
NC(=O)CC[C@H](NC(=O)[C@@H](N)Cc1ccccc1)C(=O)O [Phe-Gln] | 0.00E+00 | 1.71E+05 | 3.17E+05 | 2.35E+05 | 
N[C@@H](Cc1c[nH]c2ccccc12)C(=O)NCC(=O)O [Trp-gly] (H-Trp-Gly-OH) | 0.00E+00 | 0.00E+00 | 0.00E+00 | 6.50E+05 | 
CC(C)CC(N)C(=O)NC(C(=O)O)C(C)C (stereo not drawn) [Leu-Val] (H-Leu-Val-OH; configuration not given here) | 4.22E+06 | 7.59E+06 | 0.00E+00 | 0.00E+00 | 
N[C@@H](Cc1cnc[nH]1)C(=O)N[C@@H](Cc1c[nH]c2ccccc12)C(=O)O [His-Trp] | 1.94E+06 | 0.00E+00 | 1.97E+06 | 5.05E+06 | 
CSCC[C@H](NC(=O)[C@@H](N)Cc1c[nH]c2ccccc12)C(=O)O [Trp-Met] (H-Trp-Met-OH) | 0.00E+00 | 0.00E+00 | 0.00E+00 | 1.16E+06 | 

Continued, values first:

Peptide signal (feature intensity) in the small intestine, 30 min | Peptide signal (feature intensity) in the small intestine, 60 min | Peptide signal (feature intensity) in the small intestine, 120 min | Peptide signal (feature intensity) in the small intestine, 240 min | time detected in serum (FBMN) (serum, time points 0.5-4 h after oral DHG) | Structure (SMILES)
3.30E+06 | 7.38E+06 | 0.00E+00 | 0.00E+00 |  | CSCC[C@H](NC(=O)[C@@H](N)C(C)C)C(=O)O [Val-Met] (H-Val-Met-OH)
2.94E+06 | 3.78E+06 | 0.00E+00 | 0.00E+00 |  | CC(C)CC(NC(=O)C(N)C(C)C)C(=O)O (stereo not drawn) [Val-Leu] (H-Val-Leu-OH; configuration not given here)
1.01E+05 | 0.00E+00 | 8.22E+05 | 4.33E+05 |  | CC(C)CC1NC(=O)C(Cc2ccccc2)NC1=O (stereo not shown) [cyclo(Phe-Leu)]
3.95E+05 | 0.00E+00 | 6.03E+05 | 4.57E+05 |  | CC(C)[C@@H]1NC(=O)[C@@H]2CCCN2C1=O [cyclo(L-Val-L-Pro)]
